The record followed here is patent US20240270741A1 (Cogent Biosciences, Inc., priority 2023, published 2024).

This assay deals with FGFR2 (Homo sapiens, UniProt P21802). The assay can be described thus: FGFR wild type enzyme assay (HTRF KinEASE-TK), FGFR2. The note with it: Enz FGFR2 (nM), FGFR2 wild type enzyme assay. In general terms: In TR-FRET formats the signal depends on donor and acceptor labels being close together.
FGFR2, sequence (P21802 399-821 limits assumed): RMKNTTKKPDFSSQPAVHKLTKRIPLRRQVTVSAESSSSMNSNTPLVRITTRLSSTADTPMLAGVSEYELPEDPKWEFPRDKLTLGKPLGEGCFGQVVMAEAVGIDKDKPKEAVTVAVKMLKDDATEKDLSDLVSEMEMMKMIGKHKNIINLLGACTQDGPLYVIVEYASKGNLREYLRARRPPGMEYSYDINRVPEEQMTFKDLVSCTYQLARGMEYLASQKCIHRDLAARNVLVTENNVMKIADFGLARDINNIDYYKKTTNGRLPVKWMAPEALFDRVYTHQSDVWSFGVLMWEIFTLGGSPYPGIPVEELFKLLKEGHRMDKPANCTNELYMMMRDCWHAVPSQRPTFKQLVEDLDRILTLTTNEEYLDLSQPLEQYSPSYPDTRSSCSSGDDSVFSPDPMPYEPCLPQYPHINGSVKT
The term IC50 denotes the concentration at which inhibition is half-maximal. `C[C@@H](O)C(=O)N1CC[C@@H](n2cc(-c3cc(Sc4ccccc4C#N)c4c(C#N)cnn4c3)cn2)C1` [Example 605, 4-((2-cyanophenyl)thio)-6-(1-((R)-1-((R)-2-hydroxypropanoyl)pyrroli-din-3-yl)-1H-pyrazol-4-yl)pyrazolo[1,5-a]pyridine-3-carbonitrile]: half-maximal inhibition (IC50) required 0.6 nM. The result for `C[C@H](O)C(=O)N1CC[C@@H](n2cc(-c3cc(Sc4ccccc4C#N)c4c(C#N)cnn4c3)cn2)C1` [Example 606, 4-((2-cyanophenyl)thio)-6-(1-((R)-1-((S)-2-hydroxypropanoyl)pyrrolidin-3-yl)-1H-pyrazol-4-y)pyrazolo[1,5-a]pyridine-3-carbonitrile] reads 0.5 nM; that for `N#Cc1ccccc1Sc1cc(-c2cnn(C(F)(F)F)c2)cn2ncc(C#N)c12` [Example 607, 4-((2-cyanophenyl)thio)-6-(1-(trifluoromethyl)-1H-pyrazol-4-yl)pyrazolo[1,5-a]pyridine-3-carbonitrile], 10 nM; that for `Cn1ncc(-c2cc(Sc3ccccc3C#N)c3c(C#N)cnn3c2)c1N` [Example 608, 6-(5-amino-1-methyl-1H-pyrazol-4-yl)-4-((2-cyanophenyl)thio)pyrazolo [1,5-a]pyridine-3-carbonitrile], 2 nM. The result for `N#Cc1ccccc1Sc1cc(-c2cnn(-c3cn[nH]c3)c2)cn2ncc(C#N)c12` [Example 609, 6-(1′H-[1,4′-bipyrazol]-4-yl)-4-((2-cyanophenyl)thio)pyrazolo [1,5-a]pyridine-3-carbonitrile] reads 4 nM. The compound `CN1CCN(c2ccc(-c3cc(Sc4ccc(F)cc4C#N)c4c(C#N)cnn4c3)cn2)CC1=O` [Example 610, 4-((2-cyano-4-fluorophenyl)thio)-6-(6-(4-methyl-3-oxopiperazin-1-yl)pyridin-3-yl)pyrazolo[1,5-a]pyridine-3-carbonitrile] had an IC50 of 2 nM. The result for `N#Cc1cc(F)ccc1Sc1cc(-c2ccc(N3C[C@H](O)[C@@H](O)C3)nc2)cn2ncc(C#N)c12` [Example 611, 4-((2-cyano-4-fluorophenyl)thio)-6-(6-((3S,4S)-3,4-dihydroxypyrrolidin-1-yl)pyridin-3-yl)pyrazolo[1,5-a]pyridine-3-carbonitrile] reads 3 nM; that for `CN(C)c1ccc(-c2cc(Sc3ccc(F)cc3C#N)c3c(C#N)cnn3c2)cn1` [Example 612, 4-((2-cyano-4-fluorophenyl)thio)-6-(6-(dimethylamino)pyridin-3-yl)pyrazolo[1,5-a]pyridine-3-carbonitrile], 2 nM; that for `N#Cc1ccccc1Sc1cc(-c2cnn(CC(F)F)c2)cn2ncc(C#N)c12` [Example 613, 4-((2-cyanophenyl)thio)-6-(1-(2,2-difluoroethyl)-1H-pyrazol-4-yl)pyrazolo[1,5-a]pyridine-3-carbonitrile], 1 nM. The result for `Cc1c(-c2cc(Sc3ccccc3C#N)c3c(C#N)cnn3c2)cnn1C` [Example 614, 4-((2-cyanophenyl)thio)-6-(1,5-dimethyl-1H-pyrazol-4-yl)pyrazolo[1,5-a]pyridine-3-carbonitrile] reads 9 nM; that for `Cc1nc(Sc2cc(-c3cnn(C)c3)cn3ncc(C#N)c23)c(F)cc1F` [Example 615, 4-((3,5-difluoro-6-methylpyridin-2-yl)thio)-6-(1-methyl-1H-pyrazol-4-yl)pyrazolo[1,5-a]pyridine-3-carbonitrile], 2 nM. The result for `Cn1cc(-c2cc(Sc3ccccn3)c3c(C#N)cnn3c2)cn1` [Example 616, 6-(1-methyl-1H-pyrazol-4-yl)-4-(pyridin-2-ylthio)pyrazolo[1,5-a]pyridine-3-carbonitrile] reads 6 nM; that for `Cn1cc(-c2cc(Sc3ncccc3F)c3c(C#N)cnn3c2)c(N)n1` [Example 617, 6-(3-amino-1-methyl-1H-pyrazol-4-yl)-4-((3-fluoropyridin-2-yl)thio)pyrazolo[1,5-a]pyridine-3-carbonitrile], 6 nM; that for `CN1CC[C@@H](n2cc(-c3cc(Sc4ccccc4C#N)c4c(C#N)cnn4c3)cn2)CC1=O` [Example 618, (R)-4-((2-cyanophenyl)thio)-6-(1-(1-methyl-2-oxopiperidin-4-yl)-1H-pyrazol-4-yl)pyrazolo[1,5-a]pyridine-3-carbonitrile], 0.4 nM. In the case of `CN1CC[C@H](n2cc(-c3cc(Sc4ccccc4C#N)c4c(C#N)cnn4c3)cn2)CC1=O` [Example 619, (S)-4-((2-cyanophenyl)thio)-6-(1-(1-methyl-2-oxopiperidin-4-yl)-1H-pyrazol-4-yl)pyrazolo[1,5-a]pyridine-3-carbonitrile], half-maximal inhibition (IC50) was put at 2 nM. The result for `CC1(C)C[C@H](n2cc(-c3cc(Sc4ccccc4C#N)c4c(C#N)cnn4c3)cn2)CCN1` [Example 620, (R)-4-((2-cyanophenyl)thio)-6-(1-(2,2-dimethylpiperidin-4-yl)-1H-pyrazol-4-yl)pyrazolo[1,5-a]pyridine-3-carbonitrile] reads 0.3 nM; that for `CC1(C)C[C@@H](n2cc(-c3cc(Sc4ccccc4C#N)c4c(C#N)cnn4c3)cn2)CCN1` [Example 621, (S)-4-((2-cyanophenyl)thio)-6-(1-(2,2-dimethylpiperidin-4-yl)-1H-pyrazol-4-yl)pyrazolo[1,5-a]pyridine-3-carbonitrile], 0.3 nM; that for `N#Cc1ccccc1Sc1cc(-c2cnn([C@@H]3CCC(=O)NC3)c2)cn2ncc(C#N)c12` [Example 622, (R)-4-((2-cyanophenyl)thio)-6-(1-(6-oxopiperidin-3-yl)-1H-pyrazol-4-yl)pyrazolo[1,5-a]pyridine-3-carbonitrile], 0.5 nM.

Take `N#Cc1ccccc1Sc1cc(-c2cnn([C@H]3CCC(=O)NC3)c2)cn2ncc(C#N)c12` [Example 623, (S)-4-((2-cyanophenyl)thio)-6-(1-(6-oxopiperidin-3-yl)-1H-pyrazol-4-yl)pyrazolo[1,5-a]pyridine-3-carbonitrile]: half-maximal inhibition (IC50) required 1 nM.

As for `N#Cc1ccccc1Sc1cc(-c2cnn(C3CCC3)c2)cn2ncc(C#N)c12` [Example 624, 4-((2-cyanophenyl)thio)-6-(1-cyclobutyl-1H-pyrazol-4-yl)pyrazolo[1,5-a]pyridine-3-carbonitrile], the IC50 worked out at 1 nM. On to `N#Cc1ccccc1Sc1cc(-c2cnn([C@H]3CCCNC3)c2F)cn2ncc(C#N)c12` [Example 625, (S)-4-((2-cyanophenyl)thio)-6-(5-fluoro-1-(piperidin-3-yl)-1H-pyrazol-4-yl)pyrazolo[1,5-a]pyridine-3-carbonitrile], for which inhibition was half-maximal at 1 nM (IC50). The result for `N#Cc1cc(F)ccc1Sc1cc(-c2ccc(N3CC[C@H](O)C3)nc2)cn2ncc(C#N)c12` [Example 626, (S)-4-((2-cyano-4-fluorophenyl)thio)-6-(6-(3-hydroxypyrrolidin-1-yl)pyridin-3-yl)pyrazolo[1,5-a]pyridine-3-carbonitrile] reads 1 nM; that for `N#Cc1cc(F)ccc1Sc1cc(-c2ccc(N3CC[C@@H](O)C3)nc2)cn2ncc(C#N)c12` [Example 627, (R)-4-((2-cyano-4-fluorophenyl)thio)-6-(6-(3-hydroxypyrrolidin-1-yl)pyridin-3-yl)pyrazolo[1,5-a]pyridine-3-carbonitrile], 2 nM; that for `N#Cc1cc(F)ccc1Sc1cc(-c2ccc(N3C[C@@H](O)[C@@H](O)C3)nc2)cn2ncc(C#N)c12` [Example 628, 4-((2-cyano-4-fluorophenyl)thio)-6-(6-((3R,4S)-3,4-dihydroxypyrrolidin-1-yl)pyridin-3-yl)pyrazolo[1,5-a]pyridine-3-carbonitrile], 1 nM.

For `N#Cc1cc(F)ccc1Sc1cc(-c2ccc(N3C[C@@H](O)[C@H](O)C3)nc2)cn2ncc(C#N)c12` [Example 629, 4-((2-cyano-4-fluorophenyl)thio)-6-(6-((3R,4R)-3,4-dihydroxypyrrolidin-1-yl)pyridin-3-yl)pyrazolo[1,5-a]pyridine-3-carbonitrile], 1.6 nM corresponded to half-maximal inhibition (IC50). The result for `CC(=O)N1CCC[C@H](n2cc(-c3cc(Sc4nc(C)c(F)cc4F)c4c(C#N)cnn4c3)cn2)C1` [Example 630, (S)-6-(1-(1-acetylpiperidin-3-yl)-1H-pyrazol-4-yl)-4-((3,5-difluoro-6-methylpyridin-2-yl)thio)pyrazolo[1,5-a]pyridine-3-carbonitrile] reads 1 nM; that for `Cc1nc(Sc2cc(-c3cnn([C@H]4CCCNC4)c3)cn3ncc(C#N)c23)c(F)cc1F` [Example 631, (S)-4-((3,5-difluoro-6-methylpyridin-2-yl)thio)-6-(1-(piperidin-3-yl)-1H-pyrazol-4-yl)pyrazolo[1,5-a]pyridine-3-carbonitrile], 1 nM; that for `Cc1c(-c2cc(Sc3ccc(F)cc3C#N)c3c(C#N)cnn3c2)cnn1[C@@H]1CCCC[C@H]1O` [Example 632, 4-((2-cyano-4-fluorophenyl)thio)-6-(1-((1R,2R)-2-hydroxycyclohexyl)-5-methyl-1H-pyrazol-4-yl)pyrazolo[1,5-a]pyridine-3-carbonitrile], 32 nM. The result for `Cc1c(-c2cc(Sc3ccc(F)cc3C#N)c3c(C#N)cnn3c2)cnn1[C@H]1CCCC[C@@H]1O` [Example 633, 4-((2-cyano-4-fluorophenyl)thio)-6-(1-((2S,2S)-2-hydroxycyclohexyl)-5-methyl-1H-pyrazol-4-yl)pyrazolo[1,5-a]pyridine-3-carbonitrile] reads 1 nM.

On to `Cc1c(-c2cc(Sc3ccc(F)cc3C#N)c3c(C#N)cnn3c2)cnn1[C@H]1CC[C@H](OC(=O)[C@H](C)N)CC1` [Example 634, (1r,4S)-4-(4-(3-cyano-4-((2-cyano-4 fluorophenyl)thio)pyrazolo [1,5-a]pyridin-6-yl)-5-methyl-1H-pyrazol-1-yl)cyclohexyl L-alaninate], for which 1 nM corresponded to half-maximal inhibition (IC50). On to `Cc1c(-c2cc(Sc3ccc(F)cc3C#N)c3c(C#N)cnn3c2)cnn1[C@H]1CC[C@H](OC(=O)[C@H](N)C(C)C)CC1` [Example 635, (1r,4R)-4-(4-(3-cyano-4-((2-cyano-4-fluorophenyl)thio)pyrazolo [1,5-a]pyridin-6-yl)-5-methyl-1H-pyrazol-1-yl)cyclohexyl D-valinate], for which the IC50 was 1 nM.
